Our source for the Km values is paper PMC6816246, “A Novel Substrate Radiotracer for Molecular Imaging of SIRT2 Expression and Activity with Positron Emission Tomography” (Molecular imaging and biology, 2018).

The target of this assay is T1, SIRT2 (Homo sapiens, UniProt Q8IXJ6).
T1 sequence (Q8IXJ6 2-389): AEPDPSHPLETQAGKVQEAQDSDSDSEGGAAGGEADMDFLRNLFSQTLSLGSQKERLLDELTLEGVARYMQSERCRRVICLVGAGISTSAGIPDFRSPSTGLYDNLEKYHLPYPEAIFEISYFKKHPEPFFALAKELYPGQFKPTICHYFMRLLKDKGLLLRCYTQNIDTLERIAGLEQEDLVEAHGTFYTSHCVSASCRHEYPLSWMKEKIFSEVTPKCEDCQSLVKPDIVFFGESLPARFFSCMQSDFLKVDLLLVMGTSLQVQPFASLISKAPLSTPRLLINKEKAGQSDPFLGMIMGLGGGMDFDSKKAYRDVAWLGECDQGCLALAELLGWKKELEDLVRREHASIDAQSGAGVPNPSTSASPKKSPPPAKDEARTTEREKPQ
Kind of assay: fluorogenic enzyme kinetics with recombinant SIRT2 (Km). The assay is classed as biochemical.

In general, Km refers to the concentration of substrate that gives half-maximal velocity.

In the case of Boc-Lys(3-F-propanoyl)-AMC [compound 1], the Km was 55.5 µM.
In the case of Boc-Lys(6-F-hexanoyl)-AMC [compound 2], the Michaelis-Menten constant (Km) came out at 44.9 µM.
With Boc-Lys(10-F-decanoyl)-AMC [compound 3] the figure was 18 µM.
As for “Boc-Lys(12-F-dodecanoyl)-AMC [compound 4]”, the Km was 8.07 µM.
Regarding Boc-Lys(myristoyl)-AMC [compound 5], the Km amounted to 2.36 µM.
